Measured values from US20090041778A1, “Methods And Compositions For The Treatment Of Graft Failure” (priority 2004, published 2009).
Values after ≈ are worked out from the molar mass of the structure shown. “Also recorded” adds a separate entry of the source. Structures can show the parent of a compound that is named as a salt. One block for each compound: values may come before it.

Experiments:
neointimal hyperplasia = details: rabbit carotid artery balloon angioplasty and vein graft intimal hyperplasia models; cited from earlier work
[1] = system: human aortic vascular smooth muscle cell (HASOM cells); experiment: PDGF-induced migration of HASOM cells in a 24-well Boyden chamber; type: cell-based
Experimental: (§1) The cells were then cultured in the presence of these agents for forty-eight hours prior to the migration assay. […] Each well contained an insert with a polycarbonate filter having 8 μm pores. In preparation for the migration assays, the membranes were coated with 0.1% gelatin for 8 hours, aspirated, and allowed to dry for 2 hours.
(§2) The M-199 media containing 0.5% BSA and 20 ng/ml human PDGF-B (hPDGF-BB) was placed in the bottom Boyden chamber. Cells were incubated at 5% CO2 at 37° C. for twelve hours and the cells lying on the upper surface of the membrane were scraped off. The insert membranes were removed and the cells on the lower surface of each membrane were stained with hematoxylin. Cell migration was then quantified by counting the cells in five random high-power fields on the lower surface of the membrane. All assays were run in triplicate.

[2] = system: cells of porcine origin from a primary explant of porcine carotid artery; experiment: PDGF-induced migration of cells of porcine origin (Boyden chamber); type: cell-based; details: hPDGF-BB 20 ng/ml; second passage cells; dose dependent
Experimental: as §1, §2

[3] = system: neointimal hyperplasia in mouse vein grafts; details: administered locally; cited from earlier work
[4] = system: intimal thickening after balloon angioplasty; details: rabbit model; administered systemically; cited from earlier work
[5] = Solubility in aqueous buffer / hydrophilicity; type: physicochemical
[6] = cited from earlier work

SMILES: COc1cccc(CCc2ccccc2OCC(CN(C)C)OC(=O)CCC(=O)O)c1.Cl (stereo not drawn) [Anplag]
prevention of neointimal hyperplasia (neointimal hyperplasia): effective

SMILES: Cc1ccc(NC(=O)c2ccc(CN3CCN(C)CC3)cc2)cc1Nc1nccc(-c2cccnc2)n1 [Gleevec, imatinib mesylate]
inhibition of PDGF induced migration of HASOM cells ([1]; hPDGF-BB 20 ng/ml, 48 h drug pre-treatment, 12 h migration, dose dependent): potently inhibited; also recorded: inhibited migration | inhibition of PDGF-B induced migration of porcine cells [2]: inhibited

SMILES: O=C(c1ccc(F)cc1)C1CCN(CCn2c(=O)[nH]c3ccccc3c2=O)CC1 [Ketanserin]
prevention of neointimal hyperplasia (neointimal hyperplasia): effective

SMILES: Cc1ccc(C(=O)Nc2ccc(S(=O)(=O)O)c3cc(S(=O)(=O)O)cc(S(=O)(=O)O)c23)cc1NC(=O)c1cccc(NC(=O)Nc2cccc(C(=O)Nc3cc(C(=O)Nc4ccc(S(=O)(=O)O)c5cc(S(=O)(=O)O)cc(S(=O)(=O)O)c45)ccc3C)c2)c1 [Suramin]
inhibition of neointimal hyperplasia in mouse vein grafts [3]: effective | inhibition of intimal thickening after balloon angioplasty [4]: inhibit intimal thickening

IC50 ([1]; Homo sapiens, in vitro VSMC migration, read-out: IC50 for blocking VSMC migration): 1 to 5 ng/mL (≈ 1.09 to 5.47 nM) | hydrophilicity [5]: very hydrophilic
SMILES: CO[C@H]1C[C@@H]2CC[C@@H](C)[C@@](O)(O2)C(=O)C(=O)N2CCCC[C@H]2C(=O)O[C@H]([C@H](C)C[C@@H]2CC[C@@H](O)[C@H](OC)C2)CC(=O)[C@H](C)/C=C(\C)[C@@H](O)[C@@H](OC)C(=O)[C@H](C)C[C@H](C)/C=C/C=C/C=C/1C [rapamycin]
absorption after oral administration [6]: absorbed rapidly and completely
